Measured values as given in US8309558B2, “Compounds for the treatment of hepatitis C” (Bristol-Myers Squibb Company, priority 2008, dated 2012).
Like-named read-outs stand apart in the source and are kept apart here.

Key:
[1] = target: T1, HCV NS5B RdRp genotype 1b (Hepatitis C virus genotype 1b, UniProt Q9WMX2); test: Standard HCV NS5B RdRp enzyme assay; type: biochemical; conditions: HCV NS5B RdRp genotype 1b, read-out: IC50
T1 construct: The protein was expressed with an 18 amino acid C-terminal truncation to enhance the solubility; made in house; host or cells: E. coli BL21(DE3), pET21a vector
T1 sequence (Q9WMX2 2420-2992): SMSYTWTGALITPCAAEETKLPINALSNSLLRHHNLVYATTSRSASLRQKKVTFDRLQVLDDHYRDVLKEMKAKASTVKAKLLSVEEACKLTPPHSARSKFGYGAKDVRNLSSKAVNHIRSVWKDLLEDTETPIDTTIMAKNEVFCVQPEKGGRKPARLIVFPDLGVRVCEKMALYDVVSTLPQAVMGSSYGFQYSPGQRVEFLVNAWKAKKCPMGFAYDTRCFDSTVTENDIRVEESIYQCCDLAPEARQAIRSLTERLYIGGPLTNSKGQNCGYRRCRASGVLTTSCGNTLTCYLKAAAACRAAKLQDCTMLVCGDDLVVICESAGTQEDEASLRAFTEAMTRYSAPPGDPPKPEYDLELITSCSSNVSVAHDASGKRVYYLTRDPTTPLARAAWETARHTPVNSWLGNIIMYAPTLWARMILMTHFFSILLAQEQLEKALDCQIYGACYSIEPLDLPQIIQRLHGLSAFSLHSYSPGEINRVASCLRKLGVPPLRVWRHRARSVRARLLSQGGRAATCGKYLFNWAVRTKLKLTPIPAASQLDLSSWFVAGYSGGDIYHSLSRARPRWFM
Method in brief: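 C-terminally truncated (18 aa) genotype 1b NS5B from E. coli, 28 nM, with 6 nM polyA template, 180 nM biotinylated oligo-dT12 primer and 3H-UTP (0.29 μM total UTP). Hepes pH 7.5 buffer with 2% DMSO; 60 min at 30° C. EDTA stop, SPA read-out; IC50 from seven concentrations by four-parameter fit.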

HCV replicon cells = test: HCV replicon FRET / luciferase assay (96-well plates); type: cell-based; conditions: Hepatitis C virus, HCV replicon, read-out: EC50
Method in brief: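 Replicon cells (with or without Renilla luciferase reporter) incubated with titrated compounds at 37 °C; Alamar blue read for cytotoxicity first. NS3 protease activity read kinetically with 20 μM EDANS/DABCYL FRET peptide in lysis reagent plus 150 mM NaCl (ex 340/em 490), or by Dual-Glo luciferase. EC50 = 50% signal reduction after protease-inhibitor background subtraction.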

SMILES: C#CCOc1cc(C)c(-c2ccc3oc(-c4ccc(F)cc4)c(C(=O)NC)c3c2)cc1C(=O)NC1(c2ccccn2)CC1
- IC50 ([1]; Table 1d (class symbols)): 1 to 250 nM
- EC50 (HCV replicon cells; 24 h, Table 1d (class symbols)): 1 to 250 nM

SMILES: CNC(=O)c1c(-c2ccc(F)cc2)oc2ccc(-c3cc(C(=O)NC4(c5cnccn5)CC4)c(OC)cc3C)cc12
- IC50 ([1]; Table 1d (class symbols)): 1 to 250 nM
- EC50 (HCV replicon cells; 24 h, Table 1d (class symbols)): 1 to 250 nM

SMILES: CNC(=O)c1c(-c2ccc(F)cc2)oc2ccc(-c3cccc(C(=O)NC4(c5ccccc5)CC4)c3)cc12 [drawing 67]
- IC50 ([1]; Table 1a): < 250 nM
- EC50 (HCV replicon cells; Table 1a): < 250 nM

SMILES: CNC(=O)c1c(-c2ccc(F)cc2)oc2cc(N)c(-c3cccc(C(=O)NC(C)(C)c4ccccc4)c3)cc12 [drawing 94]
- IC50 ([1]; Table 1a): < 250 nM
- EC50 (HCV replicon cells; Table 1a): < 250 nM

SMILES: CNC(=O)c1c(-c2ccc(F)cc2)oc2ccc(-c3cc(C(=O)NC4(c5ccccc5)CC4)ccc3F)cc12 [drawing 100]
- IC50 ([1]; Table 1a): < 250 nM
- EC50 (HCV replicon cells; Table 1a): < 250 nM

SMILES: CNC(=O)c1c(-c2ccc(F)cc2)oc2ccc(-c3cccc(C(=O)NCCOC)c3)cc12 [drawing 182]
- IC50 ([1]; Table 1a): 1000 to 10000 nM
- EC50 (HCV replicon cells; Table 1a): 1000 to 10000 nM

SMILES: CNC(=O)c1c(-c2ccc(F)cc2)oc2ccc(-c3cccc(C(=O)N(C)CCC#N)c3)cc12 [drawing 204]
- IC50 ([1]; Table 1a): 250 to 1000 nM
- EC50 (HCV replicon cells; Table 1a): 1000 to 10000 nM

SMILES: CNC(=O)c1c(-c2ccc(F)cc2)oc2ccc(-c3cccc(C(=O)N4CCCCC4C)c3)cc12 (centres unmarked) [drawing 208]
- IC50 ([1]; Table 1a): 250 to 1000 nM
- EC50 (HCV replicon cells; Table 1a): 1000 to 10000 nM

SMILES: CCC[C@H](CO)NC(=O)c1cccc(-c2ccc3oc(-c4ccc(F)cc4)c(C(=O)NC)c3c2)c1 [drawing 228]
- IC50 ([1]; Table 1a): 1000 to 10000 nM
- EC50 (HCV replicon cells; Table 1a): 1000 to 10000 nM

SMILES: CCCC[C@H](CO)NC(=O)c1cccc(-c2ccc3oc(-c4ccc(F)cc4)c(C(=O)NC)c3c2)c1 [drawing 232]
- IC50 ([1]; Table 1a): 250 to 1000 nM
- EC50 (HCV replicon cells; Table 1a): 1000 to 10000 nM

SMILES: CNC(=O)c1c(-c2ccc(F)cc2)oc2ccc(-c3cccc(C(=O)N[C@@H](CO)C(C)C)c3)cc12 [drawing 235]
- IC50 ([1]; Table 1a): 250 to 1000 nM
- EC50 (HCV replicon cells; Table 1a): 1000 to 10000 nM

SMILES: CNC(=O)c1c(-c2ccc(F)cc2)oc2ccc(-c3cccc(C(=O)N[C@H]4CCC[C@H]4c4ccc(Cl)cc4)c3)cc12 [drawing 243]
- IC50 ([1]; Table 1a): > 10000 nM
- EC50 (HCV replicon cells; Table 1a): 1000 to 10000 nM

SMILES: CNC(=O)c1c(-c2ccc(F)cc2)oc2ccc(-c3cccc(C(=O)N4CC[C@H](NC(C)=O)C4)c3)cc12 [drawing 277]
- IC50 ([1]; Table 1a): 1000 to 10000 nM
- EC50 (HCV replicon cells; Table 1a): > 10000 nM

SMILES: CNC(=O)c1c(-c2ccc(F)cc2)oc2ccc(-c3ccc(C(=O)N(C)Cc4cccnc4)cc3)cc12 [drawing 286]
- IC50 ([1]; Table 1a): 1000 to 10000 nM
- EC50 (HCV replicon cells; Table 1a): > 10000 nM

SMILES: CNC(=O)c1c(-c2ccc(F)cc2)oc2ccc(-c3ccc(C(=O)N4CCC[C@@H]4COC)cc3)cc12 [drawing 288]
- IC50 ([1]; Table 1a): > 10000 nM
- EC50 (HCV replicon cells; Table 1a): > 10000 nM

SMILES: CN1CN(C)c2c(-c3cccc(C(N)=O)c3)ccc3oc(-c4ccc(F)cc4)c(c23)C1=O [drawing 319]
- IC50 ([1]; Table 1a): > 10000 nM
- EC50 (HCV replicon cells; Table 1a): > 10000 nM

SMILES: CNC(=O)c1c(-c2ccc(F)cc2)oc2ccc(-c3cc(C(=O)NC(C)(C)c4ccccc4)ccc3OC)cc12 [drawing 355]
- IC50 ([1]; Table 1b): < 250 nM
- EC50 (HCV replicon cells; Table 1b): < 250 nM

SMILES: CNC(=O)c1c(-c2ccc(F)cc2)oc2ccc(-c3cc(C(=O)NC4(c5ccccc5)CC4)ccc3OC)cc12 [drawing 356]
- IC50 ([1]; Table 1b): < 250 nM
- EC50 (HCV replicon cells; Table 1b): < 250 nM

SMILES: CNC(=O)c1c(-c2ccc(F)cc2)oc2ccc(-c3cc(C(=O)NC4(c5ccccc5)CC4)ccc3C)cc12 [drawing 362]
- IC50 ([1]; Table 1b): < 250 nM
- EC50 (HCV replicon cells; Table 1b): < 250 nM

SMILES: CNC(=O)c1c(-c2ccc(F)cc2)oc2ccc(-c3cc(C(=O)NC4(c5ccccn5)CC4)ccc3Cl)cc12 [drawing 384]
- IC50 ([1]; Table 1b): < 250 nM
- EC50 (HCV replicon cells; Table 1b): < 250 nM

SMILES: CNC(=O)c1c(-c2ccc(F)cc2)oc2ccc(-c3cc(C(=O)NCC(C)C)ccc3OCCC3CNCCO3)cc12 (centres unmarked) [drawing 415]
- IC50 ([1]; Table 1b): < 250 nM
- EC50 (HCV replicon cells; Table 1b): < 250 nM

SMILES: CNC(=O)c1c(-c2ccc(F)cc2)oc2ccc(-c3cc(C(=O)NC4(c5ccccn5)CC4)ccc3C)cc12 [drawing 425]
- IC50 ([1]; Table 1b): < 250 nM
- EC50 (HCV replicon cells; Table 1b): < 250 nM

SMILES: CNC(=O)c1c(-c2ccc(F)cc2)oc2ccc(-c3cc(C(=O)NC4(c5nc(C)no5)CC4)c(OC)cc3C)cc12 [drawing 500]
- IC50 ([1]; Table 1b): < 250 nM
- EC50 (HCV replicon cells; Table 1b): < 250 nM

SMILES: CNC(=O)c1c(-c2ccc(F)cc2)oc2ccc(-c3cc(C(=O)NC4(c5ccncc5)CC4)ccc3C)cc12 [drawing 501]
- IC50 ([1]; Table 1b): < 250 nM
- EC50 (HCV replicon cells; Table 1b): < 250 nM

SMILES: CNC(=O)c1c(-c2ccc(F)cc2)oc2ccc(-c3cc(C(=O)NC4(c5ccccn5)CC4)cc(F)c3C)cc12 [drawing 558]
- IC50 ([1]; Table 1b): < 250 nM
- EC50 (HCV replicon cells; Table 1b): < 250 nM

SMILES: CNC(=O)c1c(-c2ccc(F)cc2)oc2ccc(-c3cc(C(=O)NC4(c5ncccn5)CC4)ccc3C)cc12 [drawing 570]
- IC50 ([1]; Table 1b): < 250 nM
- EC50 (HCV replicon cells; Table 1b): < 250 nM

SMILES: CNC(=O)c1c(-c2ccc(F)cc2)oc2ccc(-c3cc(C(=O)NC4(c5ncccn5)CC4)ccc3C)c(F)c12 [drawing 587]
- IC50 ([1]; Table 1b): < 250 nM
- EC50 (HCV replicon cells; Table 1b): < 250 nM

SMILES: CNC(=O)c1c(-c2ccc(F)cc2)oc2ccc(-c3cc(C(=O)NC4(c5ccccc5)CC4)ccc3OC)cc12 [drawing 604]
- IC50 ([1]; untitled table after Table 1b): 9.95 nM
- EC50 (HCV replicon cells; untitled table after Table 1b, values without asterisk): 1.78 nM
